Data as given in ChEMBL document CHEMBL1150178, “Two toxic kaurene glycosides from the burrs of Xanthium pungens” (J Nat Prod, 1990).

Key:
Mus musculus = assay: Toxicity in mouse at 3 mg/kg, ip; assay type: organism-based; parameters: dose 3 mg/kg, route intraperitoneal; details: in vivo
Rattus norvegicus = assay: Toxicity in Wistar rat at 3 mg/kg; assay type: organism-based; parameters: dose 3 mg/kg; details: in vivo

With `C=C1[C@@H]2CC[C@H]3[C@]4(C)C[C@H](O[C@@H]5O[C@H](CO)[C@@H](O)[C@H](O)[C@H]5OC(=O)CC(C)CC)CC(C(=O)O)(C(=O)O)[C@H]4CC[C@]3(C2)[C@H]1O` (some centres undefined) the Activity (Mus musculus) was “Toxic” and the Activity (Rattus norvegicus) was “Toxic”.

`C=C1[C@@H]2CC[C@H]3[C@]4(C)C[C@H](O[C@@H]5O[C@H](CO)[C@@H](O)[C@H](O)[C@H]5OC(=O)CC(C)C)CC(C(=O)O)(C(=O)O)[C@H]4CC[C@]3(C2)[C@H]1O` was tested, and the Activity (Mus musculus) was “Toxic” and the Activity (Rattus norvegicus) was “Toxic”.
